Experimental data from patent US8927717B1, “Thiochromeno[2,3-c]quinolin-12-one derivatives, preparation method and application thereof” (National Defense Medical Center, priority 2014, dated 2015).
Like-named read-outs stand apart in the source and are kept apart here.

Key:
[1] = system: PC-3 cell line; assay: MTT assay for cell cytotoxicity; type: cell-based, human; conditions: read-out: MTT assay (IC50 ± SD) PC-3
Procedure: (§1) All of synthesis compounds were evaluated cell cytotoxicity by using MTT colorimetric assay on PC-3 and DU-145 cell lines. DU-145 and PC-3 are human hormone-refractory (androgen-independent) prostatic cancer cell lines from American Type Culture Collection (HTB-81™, ATCC, Rockville, Md.)^125 and Bioresource Collection and Research Center (60122, BCRC, Taiwan)^126, respectively. Two of the “classical” cell lines were cultivated in RPMI-1640 medium supplemented with 5% fetal bovine serum (v/v), 100 U/mL penicillin, and […] streptomycin. Approximately 2×10^3 cells were seeded into each well of a 96-well plate and incubated in 5% CO2 at 37° C. for 24 h. To evaluate the in vitro cytotoxicity, all the synthetic compounds were dissolved in DMSO, prepared immediately before the experiments and diluted into the complete medium before being added to each well of a 96-well plate. Each compound was then added to the culture medium for designated various concentrations (0.15, 0.5, 1.5, 5, 15 μM). After 72 h, an amount of 100 μL of MTT (1 mg/mL) was added to each well, and the samples were incubated at 37° C. for 4 h. After removing the MTT solution, 100 μL of DMSO was added to each well and incubated at 37° C. for another 20 mins. The absorbency at 560 nm was measured by using an ELISA reader.
(§2) Results are expressed as mean values of at least three independent experiments. The IC50 values of testing compounds were described in Table 1.

[2] = system: DU-145 cell line; assay: MTT assay for cell cytotoxicity; type: cell-based, human; conditions: read-out: MTT assay (IC50 ± SD) DU-145
Procedure: as §1, §2

SMILES	IC50 ([1]; Homo sapiens, PC-3, 72 h)	IC50 ([2]; Homo sapiens, DU-145, 72 h)	IC50 ([1]; PC-3 cells, 72 h, at least three independent experiments)	IC50 ([2]; DU-145 cells, 72 h, at least three independent experiments)
CC(C)CC(C)Nc1nc2ccccc2c2c(=O)c3cc(Cl)ccc3sc12 (stereo not shown) [Compound N13, 10-Chloro-6-((4-methylpentan-2-yl)amino)-12H-thiochromeno[2,3-c]quinolin-12-one]	10.4 ± 2.3 µM	14.2 ± 1.18 µM		
O=c1c2cc(Cl)ccc2sc2c(NCCO)nc3ccccc3c12 [Compound N9, 10-Chloro-6-(2-ethanolamino)-12H-thiochromeno[2,3-c]quinolin-12-one]			7.48 ± 3.35 µM	11.6 ± 7.23 µM
